Experiments:
[1] = Experiment 2: administration of HGH and DHEA, blood metabolite levels; type: in vivo, human
Experimental: As in the first experiment, a standard dietary regimen was followed the evening before each blood sample was collected. HGH administration was initiated one day after a baseline blood sample was drawn. HGH was injected subcutaneously at a dose of approximately 0.018 mg/kg/day, every other night, and was injected near midnight prior to blood collection the following morning. Blood was collected between 10:30 and 11:00 a.m. The second blood sample was taken on day 8, or just over 7 days after beginning HGH injections (4 injections in total to that time). After this second blood sample, a “wash out” period of two days was allowed prior to reinitiating injections according to the same schedule. On day 9, during the HGH “wash out” period, a priming dose of 200 mg of DHEA was taken in divided doses to prepare the patient for the HGH. The second round of injections was done simultaneously with the ingestion of two 100 mg capsules of DHEA, beginning on the evening of day 10. This regimen continued for a total of 4 HGH injections, culminating in the final injection on day 16 and blood sampling on day 17. Two hundred mg of DHEA were taken also on the nights between HGH injections, at the normal time. HGH injections were administered near midnight of the day stated.

[2] = Independent experiment: IGF-1 level after arginine ingestion; type: in vivo; conditions: two hours after arginine ingestion; basal 223 ng/ml
Text: This drop was sustained as long as arginine administration was continued. […] Others have also measured somatomedin C levels following arginine ingestion or infusion, and found them to be depressed despite good release of HGH. There is no explanation for this paradox, but it is not material to the fact that HGH is released by arginine and that released HGH does elevate insulin and that DHEA does block this insulin-elevating effect.

[3] = humans, arginine ingestion or infusion; cited from earlier work
[4] = Experiment 1: administration of arginine (an HGH releaser) and DHEA to a human patient, fasting blood analysis; type: in vivo
Text: A human patient was placed on a standardized regimen of nutrient intake for two weeks to establish a baseline prior to ingesting any HGH releasing agents. The evening prior to blood analysis, the same evening meal was consumed (salmon, potato, white wine, vegetables, and Caesar salad). Upon establishing basal values for glucose, insulin, somatomedin C (a marker for growth hormone), DHEA-sulfate, serum lipids, and testosterone, a daily regimen of ingesting 15 grams of arginine just before bedtime was instituted. This regimen was maintained for one week, after which a new baseline was obtained. The evening following this new baseline measurement, DHEA was ingested at a dose of 180 mg (two 90 mg capsules taken simultaneously) at the same time as the arginine. This was continued for one week and the baseline levels of metabolites were rechecked. Finally, for the last week, the arginine dose was administered every other day or at 7.5 g/day while DHEA levels were maintained. Thus, the data points are as follows: • 1: Baseline—begin 15 gm/day administration of arginine; • 2: Day 7—begin 180 mg/day DHEA; • 3: Day 14—begin 15 gm arginine every other day or 7.5 g/day; and • 4: Day 21—end of experiment, no arginine administered the previous night.

[5] = cited from earlier work

Compound: HGH: recombinant or natural human growth hormone
- insulin rise prior to DHEA ingestion ([1]; HGH approx. 0.018 mg/kg/day s.c. every other night, day 8): 57%
- DHEA-sulfate change ([1]; HGH only): unaltered
- circulating DHEA levels, depression ([1]; HGH only): a third
- Insulin level ([1]; serum, by stage of experiment, baseline 6.6): 10.4 uU/ml
- IGF-1 level ([1]; serum, by stage of experiment, baseline 27.0): 35.5 µg/dL
- DHEA-sulfate level ([1]; serum, by stage of experiment, baseline 146): 146 µg/dL
- DHEA level ([1]; serum, by stage of experiment, baseline 360): 240 ng/dL

Compound: N=C(N)NCCC[C@H](N)C(=O)O [arginine]
- IGF-1 level after arginine ingestion [2]: 166 ng/mL
- time for insulin to fall back to baseline after arginine [3]: 1 to 2 h
- time to peak of insulin levels after arginine [3]: ≤ 30 min
- insulin determination after only 3 days of arginine ingestion ([4]; 3 days of arginine, data not shown in FIG. 1): normal insulin level
- somatomedin C (IGF-1) levels in response to oral arginine ([4]; FIG. 5, sustained as long as arginine was continued): DROP
- circulating level of DHEA-sulfate, point 4 versus point 3 ([4]; fall in arginine ingestion, no drop in DHEA ingestion): fell
- glucose concentration ([4]; fasting serum, during introduction and tapering off of arginine): no change
- fasting serum insulin rise in response to arginine ingestion ([4]; point 2, day 7, 15 g/day arginine at bedtime, no DHEA): ~50%
- DHEA-sulfate, endogenous change ([4]; point 2 versus point 1, arginine only, no DHEA ingested): noticeable increase

Compound: Chromium picolinate
- extension of the life span of animals [5]: 50%

Compound: C[C@]12CC[C@H](O)CC1=CC[C@@H]1[C@@H]2CC[C@]2(C)C(=O)CC[C@@H]12 [DHEA, dehydroepiandrosterone]
- insulin level at point 4 ([4]; day 21, DHEA maintained, arginine every other day, none the night before): returned to basal levels
- fasting serum insulin, % of basal levels ([4]; point 3, day 14, 180 mg/day DHEA with continuing undiminished 15 g/day arginine): 76%

Reference: patent US7166569B2, “Method for the prevention of transplant rejection” (priority 1994, dated 2007)
